Data reported in PMC6877086, “Novel charged sodium and calcium channel inhibitor active against neurogenic inflammation” (eLife, 2019).
pKd: −log10 of the molar value. Where a name gives a salt, the structure may show the parent alone. Each block holds one compound with its values, some of them ahead of it.

Legend:
Format in all cases: cell-based
Nav1.7 [1] = molecular target: T1, Nav1.7 (Homo sapiens, UniProt Q15858); assay: whole-cell patch clamp, use-dependent inhibition at […] Hz
T1 construct: gene SCN9A; human Nav1.7 stably expressed in HEK cell line
T1 sequence (Q15858 whole entry): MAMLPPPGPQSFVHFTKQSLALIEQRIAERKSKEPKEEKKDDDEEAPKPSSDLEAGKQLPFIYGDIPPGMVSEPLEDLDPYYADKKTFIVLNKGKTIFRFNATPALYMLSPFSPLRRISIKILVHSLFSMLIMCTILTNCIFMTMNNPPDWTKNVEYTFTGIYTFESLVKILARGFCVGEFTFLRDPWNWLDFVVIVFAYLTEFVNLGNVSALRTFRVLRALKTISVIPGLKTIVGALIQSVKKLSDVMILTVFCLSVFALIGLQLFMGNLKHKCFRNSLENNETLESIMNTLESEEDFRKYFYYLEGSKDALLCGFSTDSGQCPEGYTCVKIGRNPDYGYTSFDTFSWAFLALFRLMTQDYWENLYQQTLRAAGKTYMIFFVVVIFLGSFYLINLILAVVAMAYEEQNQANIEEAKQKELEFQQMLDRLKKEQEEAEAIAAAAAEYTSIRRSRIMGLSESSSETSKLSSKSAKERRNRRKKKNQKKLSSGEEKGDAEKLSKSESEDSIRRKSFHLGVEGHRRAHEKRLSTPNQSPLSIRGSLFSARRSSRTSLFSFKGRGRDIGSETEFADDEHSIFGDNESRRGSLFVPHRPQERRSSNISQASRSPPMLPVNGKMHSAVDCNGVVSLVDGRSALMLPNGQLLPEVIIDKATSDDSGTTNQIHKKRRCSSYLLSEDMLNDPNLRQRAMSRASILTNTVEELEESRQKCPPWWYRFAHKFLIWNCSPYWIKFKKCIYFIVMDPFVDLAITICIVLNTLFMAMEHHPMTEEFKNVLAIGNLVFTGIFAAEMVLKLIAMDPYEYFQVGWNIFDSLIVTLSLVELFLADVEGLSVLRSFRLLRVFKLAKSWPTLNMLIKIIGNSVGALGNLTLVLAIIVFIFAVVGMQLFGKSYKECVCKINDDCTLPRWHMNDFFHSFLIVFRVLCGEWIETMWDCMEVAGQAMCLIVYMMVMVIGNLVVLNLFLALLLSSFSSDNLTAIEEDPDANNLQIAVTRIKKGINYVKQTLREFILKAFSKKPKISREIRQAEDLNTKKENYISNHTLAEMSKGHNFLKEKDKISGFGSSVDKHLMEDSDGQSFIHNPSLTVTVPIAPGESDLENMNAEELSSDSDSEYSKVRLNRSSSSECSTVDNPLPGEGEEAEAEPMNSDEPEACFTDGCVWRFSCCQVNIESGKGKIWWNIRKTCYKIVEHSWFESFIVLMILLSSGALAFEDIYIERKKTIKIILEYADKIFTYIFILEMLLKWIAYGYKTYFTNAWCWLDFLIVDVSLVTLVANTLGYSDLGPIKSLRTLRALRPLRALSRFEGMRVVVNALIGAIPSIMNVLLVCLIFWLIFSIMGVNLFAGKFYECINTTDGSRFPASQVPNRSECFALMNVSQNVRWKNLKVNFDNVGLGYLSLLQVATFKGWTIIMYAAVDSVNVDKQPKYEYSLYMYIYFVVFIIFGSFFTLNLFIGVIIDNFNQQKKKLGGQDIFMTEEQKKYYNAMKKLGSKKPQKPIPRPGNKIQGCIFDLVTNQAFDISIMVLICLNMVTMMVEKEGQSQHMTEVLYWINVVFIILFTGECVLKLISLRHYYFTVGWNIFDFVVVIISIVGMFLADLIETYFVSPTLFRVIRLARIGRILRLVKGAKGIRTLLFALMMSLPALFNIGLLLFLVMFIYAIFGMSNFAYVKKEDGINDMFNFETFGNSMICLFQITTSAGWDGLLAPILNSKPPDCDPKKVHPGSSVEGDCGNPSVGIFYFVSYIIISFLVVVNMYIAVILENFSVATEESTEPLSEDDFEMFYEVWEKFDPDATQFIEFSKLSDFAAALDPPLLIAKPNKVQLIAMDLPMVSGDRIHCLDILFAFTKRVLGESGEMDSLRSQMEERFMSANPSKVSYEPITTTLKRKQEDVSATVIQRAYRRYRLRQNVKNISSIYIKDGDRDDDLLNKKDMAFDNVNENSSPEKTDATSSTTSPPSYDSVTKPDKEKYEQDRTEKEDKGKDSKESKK

Cav2.2 [2] = molecular target: T2, Cav2.2 (Rattus norvegicus, UniProt Q02294); assay: whole-cell patch clamp, Ba2+ current
T2 construct: gene Cacna1b; rat Cav2.2 stably expressed with β3 and α2δ−1 subunits in tsA201 cell line; with β3 subunit and α2δ−1 subunit

Cav2.2 [3] = molecular target: T2, Cav2.2; assay: whole-cell patch clamp, Ba2+ current, external and internal application
Nav1.7 [4] = molecular target: T1, Nav1.7; assay: whole-cell patch clamp, external application; KI estimated from shift in channel availability

Compound: CCN(CC)CC(=O)Nc1c(C)cccc1C [lidocaine]
whole-cell patch clamp, use-dependent inhibition at 10 Hz (Nav1.7 [1]): current reduced to 57 ± 7% of control (no drug 77 ± 3%) by 30

inhibition at 10 µM (Cav2.2 [2]): ~60%
Compound: COc1ccc(CNC(=O)C(CSCC2CCCC2)NCCC(C)(C)C)cc1 (centres unmarked) [NNCB-2, 3-Cyclopentylmethylsulfanyl-2-(3,3-dimethyl-butylamino)-N-(4-methoxy-benzyl)-propionamide]

pKd (Nav1.7 [4]): 6.15
Compound: COc1ccc(CNC(=O)C(CSCC2CCCC2)[N+](C)(C)CCC(C)(C)C)cc1 (centres unmarked) [CNCB-2, [2-Cyclopentylmethylsulfanyl-1-(4-methoxy-benzylcarbamoyl)-ethyl]−(3,3-dimethyl-butyl)-dimethyl-ammonium, chloride salt]
whole-cell patch clamp, Ba2+ current, external and internal application (Cav2.2 [3]): current reduced to 5 ± 2% of control by 100

Compound: CCCCN1CCCCC1C(=O)Nc1c(C)cccc1C (centres unmarked) [bupivacaine]
whole-cell patch clamp, use-dependent inhibition at 10 Hz (Nav1.7 [1]): current reduced to 22 ± 4% (no drug 77 ± 3%) by 10
